ChEMBL document CHEMBL1201861, “Genomics of Drug Sensitity in Cancer screening data, Wellcome Trust Sanger Institute”

Assays:
Assay in all cases: cells
Settings in all cases: Homo sapiens
NCI-H1155 = format: functional, cell-based;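 also: cell growth inhibition measured by a viability assay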
Description: SANGER: Inhibition of human NCI-H1155 cell growth in a cell viability assay.

CTB-1 = format: functional, cell-based
Description: SANGER: Inhibition of human CTB-1 cell growth in a cell viability assay.

NCI-H1355 = format: functional, cell-based;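 also: growth inhibition of human NCI-H1355 cells, read out by a cell viability assay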
Description: SANGER: Inhibition of human NCI-H1355 cell growth in a cell viability assay.

C8166 = format: functional, cell-based;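 also: growth inhibition of human C8166 cells measured by a cell viability assay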
Description: SANGER: Inhibition of human C8166 cell growth in a cell viability assay.

TE-11 = format: functional, cell-based;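 also: growth inhibition of human TE-11 cells, read out by a cell viability assay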
Description: SANGER: Inhibition of human TE-11 cell growth in a cell viability assay.

SK-MEL-1 = format: functional, cell-based;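 also: growth inhibition of human SK-MEL-1 cells, read out by a cell viability assay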
Description: SANGER: Inhibition of human SK-MEL-1 cell growth in a cell viability assay.

KALS-1 = format: functional, cell-based;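 also: growth inhibition of KALS-1 cells, determined with a cell viability assay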
Description: SANGER: Inhibition of human KALS-1 cell growth in a cell viability assay.

HCE-4 = format: functional, cell-based;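 also: cell viability assay measuring inhibition of growth in the human HCE-4 cell line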
Description: SANGER: Inhibition of human HCE-4 cell growth in a cell viability assay.

SK-NEP-1 = format: functional, cell-based;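 also: growth inhibition of human SK-NEP-1 cells, read out by a cell viability assay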
Description: SANGER: Inhibition of human SK-NEP-1 cell growth in a cell viability assay.

SJSA-1 = format: functional, cell-based;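 also: growth inhibition of human SJSA-1 cells, read out through a cell viability measurement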
Description: SANGER: Inhibition of human SJSA-1 cell growth in a cell viability assay.

LB1047-RCC = format: functional, cell-based;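 also: inhibition of cell growth, determined with a cell viability assay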
Description: SANGER: Inhibition of human LB1047-RCC cell growth in a cell viability assay.

GCIY = format: functional, cell-based;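 also: growth inhibition of the human GCIY cell line, read out by a cell viability assay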
Description: SANGER: Inhibition of human GCIY cell growth in a cell viability assay.

Calu-6 = format: functional, cell-based;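 also: growth of human Calu-6 cells, read out by a cell viability assay, IC50 marking inhibition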
Description: SANGER: Inhibition of human Calu-6 cell growth in a cell viability assay.

KP-N-YS = format: functional, cell-based;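 also: cell viability assay measuring inhibition of cell line growth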
Description: SANGER: Inhibition of human KP-N-YS cell growth in a cell viability assay.

SCC-15 = format: functional, cell-based;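 also: growth inhibition of SCC-15 cells, read out with a cell viability assay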
Description: SANGER: Inhibition of human SCC-15 cell growth in a cell viability assay.

D283 Med = format: functional, cell-based
Description: SANGER: Inhibition of human D-283MED cell growth in a cell viability assay.

RPMI-8866 = format: functional, cell-based
Description: SANGER: Inhibition of human RPMI-8866 cell growth in a cell viability assay.

SW 962 = format: functional, cell-based;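 also: growth inhibition of human SW962 cells, read out by a cell viability assay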
Description: SANGER: Inhibition of human SW962 cell growth in a cell viability assay.

MS-1 = format: functional, cell-based
Description: SANGER: Inhibition of human MS-1 cell growth in a cell viability assay.

CTV-1 = format: functional, cell-based;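 also: growth inhibition of the cell line, read out with a cell viability assay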
Description: SANGER: Inhibition of human CTV-1 cell growth in a cell viability assay.

A388 = format: functional, cell-based;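 also: growth inhibition of human A388 cells, read out with a cell viability assay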
Description: SANGER: Inhibition of human A388 cell growth in a cell viability assay.

DU-4475 = format: functional, cell-based
Description: SANGER: Inhibition of human DU-4475 cell growth in a cell viability assay.

HCC1187 = format: functional, cell-based;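 also: growth inhibition of HCC1187 cells, read out with a cell viability assay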
Description: SANGER: Inhibition of human HCC1187 cell growth in a cell viability assay.

KLE = format: functional, cell-based;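 also: growth inhibition of human KLE cells, read out with a cell viability assay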
Description: SANGER: Inhibition of human KLE cell growth in a cell viability assay.

NOMO-1 = format: functional, cell-based;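 also: growth inhibition of human NOMO-1 cells measured by a cell viability assay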
Description: SANGER: Inhibition of human NOMO-1 cell growth in a cell viability assay.

CAS-1 = format: functional, cell-based;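 also: growth inhibition of CAS-1 cells, measured with a cell viability assay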
Description: SANGER: Inhibition of human CAS-1 cell growth in a cell viability assay.

KNS-42 = format: functional, cell-based;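 also: growth inhibition of KNS-42 cells, read out with a cell viability assay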
Description: SANGER: Inhibition of human KNS-42 cell growth in a cell viability assay.

EC-GI-10 = format: functional, cell-based
Description: SANGER: Inhibition of human EC-GI-10 cell growth in a cell viability assay.

L-428 = format: functional, cell-based
Description: SANGER: Inhibition of human L-428 cell growth in a cell viability assay.

ES5 = format: functional, cell-based;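 also: growth inhibition of human ES5 cells, read out by a cell viability assay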
Description: SANGER: Inhibition of human ES5 cell growth in a cell viability assay.

GOTO = format: functional, cell-based;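 also: growth inhibition of GOTO cells, read out by a cell viability assay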
Description: SANGER: Inhibition of human GOTO cell growth in a cell viability assay.

ONS-76 = format: functional, cell-based;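 also: growth inhibition of human ONS-76 cells, read out with a cell viability assay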
Description: SANGER: Inhibition of human ONS-76 cell growth in a cell viability assay.

SF-539 = format: functional, cell-based;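 also: Read-out is a cell viability assay, with IC50 reflecting inhibition of cell growth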
Description: SANGER: Inhibition of human SF539 cell growth in a cell viability assay.

HCE-T = format: functional, cell-based;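 also: cell viability assay read-out, reporting inhibition of HCE-T cell growth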
Description: SANGER: Inhibition of human HCE-T cell growth in a cell viability assay.

KURAMOCHI = format: functional, cell-based;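 also: growth inhibition of KURAMOCHI cells, read out with a cell viability assay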
Description: SANGER: Inhibition of human KURAMOCHI cell growth in a cell viability assay.

LS-1034 = format: functional, cell-based
Description: SANGER: Inhibition of human LS-1034 cell growth in a cell viability assay.

ML-2 = format: functional, cell-based;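 also: growth inhibition of ML-2 cells, measured with a cell viability readout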
Description: SANGER: Inhibition of human ML-2 cell growth in a cell viability assay.

SK-N-DZ = format: functional, cell-based;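 also: growth inhibition of the cancer cell line, read out through a viability assay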
Description: SANGER: Inhibition of human SK-N-DZ cell growth in a cell viability assay.

MHH-PREB-1 = format: functional, cell-based;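 also: cell viability assay measuring inhibition of proliferation of human MHH-PREB-1 cells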
Description: SANGER: Inhibition of human MHH-PREB-1 cell growth in a cell viability assay.

SK-N-FI = format: functional, cell-based;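 also: cell viability assay measuring growth inhibition of human SK-N-FI cells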
Description: SANGER: Inhibition of human SK-N-FI cell growth in a cell viability assay.

MSTO-211H = format: functional, cell-based
Description: SANGER: Inhibition of human MSTO-211H cell growth in a cell viability assay.

SNB-75 = format: functional, cell-based;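 also: cell viability assay measuring growth inhibition of human SNB-75 cells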
Description: SANGER: Inhibition of human SNB75 cell growth in a cell viability assay.

OMC-1 = format: functional, cell-based;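 also: growth inhibition of the OMC-1 cell line, measured by a cell viability assay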
Description: SANGER: Inhibition of human OMC-1 cell growth in a cell viability assay.

KARPAS-45 = format: functional, cell-based;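 also: inhibition of cell line growth, read out through a viability assay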
Description: SANGER: Inhibition of human KARPAS-45 cell growth in a cell viability assay.

KG-1 = format: functional, cell-based;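 also: growth inhibition of KG-1 cells, read out by a cell viability assay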
Description: SANGER: Inhibition of human KG-1 cell growth in a cell viability assay.

DMS-79 = format: functional, cell-based;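 also: growth inhibition measured with a cell viability assay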
Description: SANGER: Inhibition of human DMS-79 cell growth in a cell viability assay.

EW-24 = format: functional, cell-based;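 also: human EW-24 cancer cell line, growth inhibition read out via a cell viability assay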
Description: SANGER: Inhibition of human EW-24 cell growth in a cell viability assay.

HOP-62 = format: functional, cell-based;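 also: cell growth inhibition determined with a viability assay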
Description: SANGER: Inhibition of human HOP-62 cell growth in a cell viability assay.

OS-RC-2 = format: functional, cell-based;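 also: growth inhibition of human OS-RC-2 cells, measured by a cell viability assay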
Description: SANGER: Inhibition of human OS-RC-2 cell growth in a cell viability assay.

ES3 = format: functional, cell-based;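 also: growth inhibition of ES3 cells, read out with a cell viability assay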
Description: SANGER: Inhibition of human ES3 cell growth in a cell viability assay.

KS-1 = format: functional, cell-based;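 also: growth inhibition of KS-1 cells, read out with a cell viability assay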
Description: SANGER: Inhibition of human KS-1 cell growth in a cell viability assay.

NCI-H209 = format: functional, cell-based;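 also: growth inhibition of human NCI-H209 cells, measured by a cell viability assay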
Description: SANGER: Inhibition of human NCI-H209 cell growth in a cell viability assay.

KINGS-1 = format: functional, cell-based;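 also: cell viability assay measuring suppression of KINGS-1 cell growth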
Description: SANGER: Inhibition of human KINGS-1 cell growth in a cell viability assay.

D-502MG = format: functional, cell-based
Description: SANGER: Inhibition of human D-502MG cell growth in a cell viability assay.

MN-60 = format: functional, cell-based;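 also: growth inhibition of the MN-60 cell line, determined with a cell viability assay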
Description: SANGER: Inhibition of human MN-60 cell growth in a cell viability assay.

HuTu80 = format: functional, cell-based, HUTU-80;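 also: growth inhibition of HuTu80 human cells, determined with a cell viability readout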
Description: SANGER: Inhibition of human HUTU-80 cell growth in a cell viability assay.

DMS-114 = format: functional, cell-based
NTERA-2-cl-D1 = format: functional, cell-based;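 also: inhibition of cell growth, measured with a cell viability assay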
Description: SANGER: Inhibition of human NTERA-S-cl-D1 cell growth in a cell viability assay.

EOL1 = format: functional, cell-based;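 also: growth inhibition of EoL-1 cells, read out by a cell viability assay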
Description: SANGER: Inhibition of human EoL-1-cell cell growth in a cell viability assay.

NCI-H510A = format: functional, cell-based;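 also: growth inhibition of NCI-H510A cells, read out with a cell viability assay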
Description: SANGER: Inhibition of human NCI-H510A cell growth in a cell viability assay.

A3-KAW = format: functional, cell-based;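 also: growth inhibition of human A3-KAW cells, read out with a cell viability assay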
Description: SANGER: Inhibition of human A3-KAW cell growth in a cell viability assay.

TK-10 = format: functional, cell-based
Description: SANGER: Inhibition of human TK10 cell growth in a cell viability assay.

KGN = format: functional, cell-based
Description: SANGER: Inhibition of human KGN cell growth in a cell viability assay.

JVM-2 = format: functional, cell-based
Description: SANGER: Inhibition of human JVM-2 cell growth in a cell viability assay.

JVM-3 = format: functional, cell-based
Description: SANGER: Inhibition of human JVM-3 cell growth in a cell viability assay.

NCI-H1648 = format: functional, cell-based
Description: SANGER: Inhibition of human NCI-H1648 cell growth in a cell viability assay.

Measured: IC50

CCNc1cc(N[C@H]2CC[C@@H](O)CC2)nc(Nc2ccc3c(ccn3Cc3ccccc3)c2)n1
4.3 µM: KS-1
1.91 µM: A3-KAW
> 5.12 µM: all other assays above

COc1cc(C)c(Sc2cnc(NC(=O)c3ccc(CNC(C)C(C)(C)C)cc3)s2)cc1C(=O)N1CCN(C(C)=O)CC1 (centres undefined)
6.22 µM: NCI-H1355
3.81 µM: ML-2
7.42 µM: LS-1034
8.13 µM: SW 962
6.3 µM: CTV-1
1.21 µM: KS-1
7.11 µM: SNB-75
8.79 µM: NTERA-2-cl-D1
7.63 µM: SJSA-1
8.9 µM: OS-RC-2 | ES3
> 10.2 µM: all other assays above

Cc1n[nH]c2ccc(-c3cncc(OC[C@@H](N)Cc4c[nH]c5ccccc45)c3)cc12 [A-443654]
0.248 µM: KNS-42
0.451 µM: HCE-T
0.183 µM: NCI-H1648
0.837 µM: EW-24
0.114 µM: HuTu80
0.196 µM: A3-KAW
0.509 µM: CTB-1
0.191 µM: OMC-1
0.118 µM: KGN
0.244 µM: KURAMOCHI
0.229 µM: NCI-H510A
0.292 µM: KINGS-1
0.323 µM: CTV-1
0.63 µM: LS-1034
0.261 µM: GCIY
0.271 µM: MHH-PREB-1
0.983 µM: DMS-114
0.487 µM: MN-60
0.444 µM: ONS-76
0.246 µM: NCI-H209
0.366 µM: GOTO
0.203 µM: KALS-1
0.113 µM: NCI-H1355
0.13 µM: TE-11
0.192 µM: ML-2
0.0872 µM: LB1047-RCC
0.75 µM: DMS-79
0.296 µM: KARPAS-45
0.14 µM: HOP-62
0.255 µM: SW 962
0.801 µM: DU-4475
0.0276 µM: NTERA-2-cl-D1
0.175 µM: OS-RC-2
0.226 µM: KLE | TK-10
0.104 µM: HCE-4
0.564 µM: NCI-H1155
0.0535 µM: KS-1
0.561 µM: NOMO-1
0.0843 µM: A388
0.116 µM: SNB-75
0.137 µM: Calu-6
0.845 µM: SK-N-FI
0.519 µM: SK-NEP-1
0.165 µM: EOL1
0.376 µM: SJSA-1
> 1.02 µM: all other assays above

CC(O)(CS(=O)(=O)c1ccc(F)cc1)C(=O)Nc1ccc(C#N)c(C(F)(F)F)c1 (centres undefined) [BICALUTAMIDE]
> 1.02 µM: all assays above
